Key:
[1] = system: Sclerotinia sclerotiorum; assay: Linear (radial) growth of fungi in vitro on potato dextrose agar with allicin; format: cell-based; details: PDA; for Linear growth, mm radius of growth: 0.1 ml allicin solution 2 mg/ml; for Effect on growth of the fungus (in words): in vitro
Experimental: (§1) Pure allicin in aqueous solution at 2 mg/ml was obtained as previously described in International PCT Publication WO 97/39115, following the interaction of synthetic, nature-identical alliin (allylcysteine sulfoxide) with a preparation of stabilized garlic alliinase. Fungal plant pathogens were grown in soil as previously described (Ko et al, 1971). Contamination of soil with Rhizoctonia solani and infection of bean seedlings was determined as previously reported (Chet, 1987).
(§2) The effect of allicin on the growth of a number of known soil fungal pathogens was examined in vitro. Fungi were innoculated in Petri dishes containing potato dextrose agar (PDA, Difco) and the radial growth rate of the fungi was measured every 24 hours. The effect of the addition of 0.1 ml of a solution of allicin (2.0 mg/ml) on the radial growth rate of the pathogen was determined after 24, 48, 72 and 96 hours.

[2] = system: Trichoderma hurzianum; assay: as above; format: cell-based; details: PDA; for Linear growth, mm radius of growth: 0.1 ml allicin solution 2 mg/ml; for Effect on growth of the fungus (in words): in vitro
Experimental: as §1, §2

[3] = system: Sclerotium Rolfsii Sacc.; assay: as above; format: cell-based; details: PDA; for Linear growth, mm radius of growth: 0.1 ml allicin solution 2 mg/ml; for Effect on growth of the fungus (in words): in vitro
Experimental: as §1, §2

[4] = system: Fusarium oxysporum f. sp. vasinfectum; assay: as above; format: cell-based; details: PDA; for Linear growth, mm radius of growth: 0.1 ml allicin solution 2 mg/ml; for Effect on growth of the fungus (in words): in vitro
Experimental: as §1, §2

[5] = system: Rhizoctonia solani Kuhn; assay: as above; format: cell-based; details: PDA; for Linear growth, mm radius of growth: 0.1 ml allicin solution 2 mg/ml; for Effect on growth of the fungus (in words): in vitro
Experimental: as §1, §2

[6] = system: Rhizoctonia solani; assay: Diseased bean plants (Phaseolus vulgaris L.) grown in Rhizoctonia solani contaminated soil pre-treated with allicin; format: in vivo
Experimental: as §1
Boxes with raw red-brown, sandy loam soil (0.5 Kg) 1.0 were precontaminated with viable Rhizoctonia solani. The fungi-contaminated soil in the boxes were subsequently irrigated with aqueous solutions (30 ml/box) containing different concentrations of allicin (A: 0.31 mg allicin/ml; B: 0.62 mg allicin/ml; C: 0.94 mg allicin/ml; D: 1.25 mg allicin/ml). Irrigations were repeated 3 times, with 3 days intervals between treatments. Controls were irrigated with similar volumes of water. Four soil replicates were irrigated for each allicin concentration as well as for the control. Following each irrigation step, the soil boxes were closed in nylon bags. Four days after the last irrigation, the bags were opened and the boxes with the soil ventilated for 5 more days.
Bean seeds (Phaseolus vulgaris L.) (10/box) were then planted in each of the boxes and the growth and development of disease in the plants was determined after 14 days. As shown in Table 2 and FIGS. 1-2, black columns, 86% of the control plants became diseased whereas in soil pre-irrigated with 0.94 (FIGS. 1-2, C) and 1.25 (FIGS. 1-2, D) mg/ml allicin, less than 20% of the plants became diseased (decrease of >80% in diseased plants, FIG. 2). The effect of allicin was dose-dependent and at the lowest concentration tested (0.31 mg allicin/ml), the decrease in the number of diseased plants was only 14% (Table 2 and FIGS. 1-2, black columns).
In order to test the time length efficacy of soil that was pre-treated with allicin, an additional experiment was done in the same soil boxes. After the first cycle of the bean growth experiment for 14 days described above, the plants were removed and a second cycle of bean growth was conducted whereby a new set of bean seeds was immediately seeded in the same soil boxes and the development of disease in the plants grown in this second cycle was determined after 14 days. The results are shown in Table 2 and in FIGS. 1-2, gray columns. […] Some protection (33%) was also observed in soils irrigated with 0.94 mg allicin/ml (C).

Compound: C=CCS[S+]([O-])CC=C (stereo not shown) [Allicin, thio-2-propene-1-sulfinic acid S-allyl ester]
- Linear growth, mm radius of growth ([1]; 24 hrs): 0.5 mm
- Linear growth, mm radius of growth ([1]; 48 hrs): 7.5 mm
- Linear growth, mm radius of growth ([1]; 72 hrs): 20 mm
- Linear growth, mm radius of growth ([1]; 96 hrs): 45 mm
- Effect on growth of the fungus (in words) [1]: Very significant inhibition of growth
- Linear growth, mm radius of growth ([2]; 24 hrs): 2.5 mm
- Linear growth, mm radius of growth ([2]; 48 hrs): 7.5 mm
- Linear growth, mm radius of growth ([2]; 72 hrs): 22.5 mm
- Effect on growth of the fungus (in words) [2]: Very significant inhibition of growth
- Linear growth, mm radius of growth ([3]; 24 hrs): 0 mm
- Linear growth, mm radius of growth ([3]; 48 hrs): 2.5 mm
- Linear growth, mm radius of growth ([3]; 72 hrs): 15 mm
- Effect on growth of the fungus (in words) [3]: Very significant inhibition of growth
- Linear growth, mm radius of growth ([4]; 24 hrs): 2.5 mm
- Linear growth, mm radius of growth ([4]; 48 hrs): 7.5 mm
- Linear growth, mm radius of growth ([4]; 72 hrs): 12.5 mm
- Linear growth, mm radius of growth ([4]; 96 hrs): 15 mm
- Effect on growth of the fungus (in words) [4]: Very significant inhibition of growth
- Linear growth, mm radius of growth ([5]; 24 hrs): 2.5 mm
- Linear growth, mm radius of growth ([5]; 48 hrs): 7.5 mm
- Linear growth, mm radius of growth ([5]; 72 hrs): 15 mm
- Effect on growth of the fungus (in words) [5]: Very significant inhibition of growth
- Diseased Plants (%) ([6]; First Cycle (14 days after planting), treatment A: 0.31 mg allicin/ml (30 ml), 3 irrigations, 0.5 Kg soil): 74%
- Diseased Plants (%) ([6]; First Cycle (14 days after planting), treatment B: 0.62 mg allicin/ml (30 ml), 3 irrigations, 0.5 Kg soil): 39%
- Diseased Plants (%) ([6]; First Cycle (14 days after planting), treatment C: 0.94 mg allicin/ml (30 ml), 3 irrigations, 0.5 Kg soil): 16%
- Diseased Plants (%) ([6]; First Cycle (14 days after planting), treatment C: 0.94 mg allicin/ml (30 ml), 3 irrigations, 0.5 Kg soil, listed as allicin): less than 20%
- Diseased Plants (%) ([6]; First Cycle (14 days after planting), treatment D: 1.25 mg allicin/ml (30 ml), 3 irrigations, 0.5 Kg soil): 18%
- Diseased Plants (%) ([6]; First Cycle (14 days after planting), treatment D: 1.25 mg allicin/ml (30 ml), 3 irrigations, 0.5 Kg soil, listed as allicin): less than 20%
- Diseased Reduction (%) ([6]; First Cycle, treatment A: 0.31 mg allicin/ml (30 ml)): 14%
- Diseased Reduction (%) ([6]; First Cycle, treatment B: 0.62 mg allicin/ml (30 ml)): 55%
- Diseased Reduction (%) ([6]; First Cycle, treatment C: 0.94 mg allicin/ml (30 ml)): 81%
- Diseased Reduction (%) ([6]; First Cycle, treatment C: 0.94 mg allicin/ml (30 ml), listed as allicin): > 80%
- Diseased Reduction (%) ([6]; First Cycle, treatment D: 1.25 mg allicin/ml (30 ml)): 90%
- Diseased Reduction (%) ([6]; First Cycle, treatment D: 1.25 mg allicin/ml (30 ml), listed as allicin): > 80%
- Diseased Plants (%) ([6]; Second Cycle (14 days after replanting), treatment A: 0.31 mg allicin/ml (30 ml)): 90%
- Diseased Plants (%) ([6]; Second Cycle (14 days after replanting), treatment A: 0.31 mg allicin/ml (30 ml), listed as allicin): almost identical to that of the controls
- Diseased Plants (%) ([6]; Second Cycle (14 days after replanting), treatment B: 0.62 mg allicin/ml (30 ml)): 80%
- Diseased Plants (%) ([6]; Second Cycle (14 days after replanting), treatment B: 0.62 mg allicin/ml (30 ml), listed as allicin): almost identical to that of the controls
- Diseased Plants (%) ([6]; Second Cycle (14 days after replanting), treatment C: 0.94 mg allicin/ml (30 ml)): 60%
- Diseased Plants (%) ([6]; Second Cycle (14 days after replanting), treatment D: 1.25 mg allicin/ml (30 ml)): 30%
- Diseased Reduction (%) ([6]; Second Cycle, treatment A: 0.31 mg allicin/ml (30 ml)): 0%
- Diseased Reduction (%) ([6]; Second Cycle, treatment B: 0.62 mg allicin/ml (30 ml)): 11%
- Diseased Reduction (%) ([6]; Second Cycle, treatment C: 0.94 mg allicin/ml (30 ml)): 33%
- Diseased Reduction (%) ([6]; Second Cycle, treatment D: 1.25 mg allicin/ml (30 ml)): 66%

Compound: allylcysteine sulfoxide [alliin, reference compound]
- Effect on growth of the fungus (in words) [1]: no effect
- Effect on growth of the fungus (in words) [2]: no effect
- Effect on growth of the fungus (in words) [3]: no effect
- Effect on growth of the fungus (in words) [4]: no effect
- Effect on growth of the fungus (in words) [5]: no effect

— patent US20040082479A1, “Method for soil sterilization from pathogens” (priority 2001, published 2004)
